Results: patent EP3673920A1, “POLYPHENOL-PEPTIDE CONJUGATES FOR NUCLEAR-TARGETED DELIVERY” (Universität Wien, priority 2018, dated 2020)

System: HT-29 cells
Assay: Comet assay (single cell gel electrophoresis), genotoxic potential
Type: cell-based, Human
Conditions: concentration corresponding to quercetin 70 µM

O=c1c(O)c(-c2ccc(O)c(O)c2)oc2cc(O)cc(O)c12 [quercetin]
genotoxic effect / DNA integrity: genotoxic effect
